Reference: patent US20230127304A1, “NEW INHIBITORS FOR THE KEAP1-NRF2 PROTEIN-PROTEIN INTERACTION” (PRESIDENT AND FELLOWS OF HARVARD COLLEGE, priority 2020, published 2023)
“Also recorded” adds a separate entry of the source. Where two headings read alike, the source gives them in different places.

Tests used:
NRF2-KEAP1 interaction [1] = target: T1, NRF2-KEAP1 interaction (Mus musculus, UniProt Q9Z2X8); experiment: Fluorescence polarization (FP) Level-2 NRF2 peptide displacement; assay type: binding; details: for FP Assay: ability to displace the NRF2-peptide
T1 construct: mouse KEAP1 Kelch domain (residues 322-624); made in house; host or cells: E. coli BL21(DE3); peptide purchased from GenScript USA Inc
Description: The measurements were carried out in triplicate, and the three data points for each concentration averaged. IC50 values were determined by fitting the averaged data points to a four parameter logistic curve using the non-linear least squares method provided by the SciPy library for Python^33. The standard error (see Table 5) on the IC50 was computed by taking the square root of the diagonal of the parameter covariant matrix.

GST-KEAP1 = target: T2, GST-KEAP1 (Mus musculus, UniProt Q9Z2X8); experiment: SPR Level-3 steady-state binding
T2 construct: mouse KEAP1 Kelch domain (residues 322-624); made in house; host or cells: E. coli BL21(DE3)
Excerpt: Req=(Rmax*C)/(Kd+C)+b, (1)
The biphasic binding model is given by the equation
Req=(Rmax,1*C)/(Kd,1+C)+Rmax,2*C/(Kd,2+C)+b, (2)

KEAP1 = target: T3, KEAP1 (Mus musculus, UniProt Q9Z2X8); experiment: Ligand-detected NMR (DLB, STD, CPMG); assay type: binding; details: 50 μM compound, 5 μM KEAP1 (2.5 μM for iKeap1 and iKeap2)
T3 construct: The cleaved mouse KEAP1 Kelch domain (residues 322-624) consists of 308 amino acids; GST (N, cleaved yes); made in house; host or cells: E. coli BL21(DE3)
Description: Data were analysed and visualized in Matlab (MathWorks, MA).

NRF2-KEAP1 interaction [2] = target: T1, NRF2-KEAP1 interaction; experiment: BLI displacement assay; assay type: binding; details: ability to displace the NRF2-peptide
Description: Bio-layer interferometry binding and displacement assays: NRF2-KEAP1 binding BLI experiments were performed on an Octet RED384 (ForteBio, Menlo Park, Calif., USA) using streptavidin-coated Dip and Read Biosensors (ForteBio) and 384 well plates with 120 μL volume. […] To test for nonspecific binding of GST-KEAP1 protein, reference tips were incubated in buffer alone. […] After measuring association, tips were moved to wells containing buffer, and dissociation was measured for 5 minutes. The data were processed and analysed using the Octet data analysis software version 11.0 (ForteBio, Inc., Menlo Park, Calif., USA). The association-dissociation curve for each concentration was fitted using a 1:1 model given by the equations
Compound screening by BLI displacement assay: The BLI displacement assays were setup as described above. […] The compounds were used at concentrations of […], and pre-incubated with GST-KEAP1 protein. The association phase was measured in the well containing compound with GST-KEAP1 protein for 10 minutes, and followed by a dissociation phase in buffer for 5 minutes. The inhibition percentage was the average BLI signal in the last 50 seconds of the dissociation phase, normalized against the condition of GST-KEAP1 protein in the absence of compound.

[3] = Dynamic light scattering (DLS) aggregation; assay type: physicochemical; details: 20 μM compound, triplicates average
Description: To test the potential aggregation of hits we used DLS experiments. The experiments were performed on a ZS90 Zetasizer instrument (Malvern Panalytical, UK). Measurements were done in triplicate with 10 scans per run (100 s). […] The 20 μM working solution was made from a 1 mM stock of the compound in DMSO. The data was analysed by the built-in software. Compounds were classified as aggregated when the radius of the measured particles was above the minimum colloidal aggregate size (for small molecules) of 50 nm^39.

NQO1 = NQO1 assay; assay type: cell-based; details: Hepa1c1c7 cells, 48 h; for specific activity of NQO1: 0 uM = 1
Description: In this study, the inventors used a […] assay to quantitate the NQO1 levels. […] Specifically, Hepa1c1c7 cells were exposed in 8 replicates to a vehicle ([…]) or 8 serial dilutions of each compound for 48 h. Cells were then lysed and the specific activity of NQO1 was determined using menadione as a substrate.

NMR solubility assay = assay type: physicochemical; details: 5 μM to 30 μM, PBS buffer, pH 7.4
[4] = SPR Level-3, independent experiment 2, compounds marked * fitted with biphasic binding model, read-out: Kd, 2

T1 sequence (Q9Z2X8 322-624): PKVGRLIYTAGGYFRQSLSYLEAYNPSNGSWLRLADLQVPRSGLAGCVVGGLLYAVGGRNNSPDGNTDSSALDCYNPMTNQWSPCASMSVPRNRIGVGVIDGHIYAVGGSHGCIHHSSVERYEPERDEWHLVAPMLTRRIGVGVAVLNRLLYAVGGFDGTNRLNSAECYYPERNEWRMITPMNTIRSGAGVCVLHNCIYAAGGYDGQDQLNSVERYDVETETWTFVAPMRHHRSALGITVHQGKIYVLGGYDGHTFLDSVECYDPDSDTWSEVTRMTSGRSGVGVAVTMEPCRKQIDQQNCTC
T2 sequence (Q9Z2X8 322-624): as above
T3 sequence (Q9Z2X8 322-624): as above

SMILES | FP Assay (NRF2-KEAP1 interaction [1]) | binding to KEAP1 by ligand-detected NMR (KEAP1) | BLI Assay (NRF2-KEAP1 interaction [2]) | Radius [3] [nm] | specific activity of NQO1 (NQO1; 0.156 uM) | specific activity of NQO1 (NQO1; 0.313 uM) | specific activity of NQO1 (NQO1; 0.625 uM) | specific activity of NQO1 (NQO1; 1.25 uM) | specific activity of NQO1 (NQO1; 2.5 uM) | specific activity of NQO1 (NQO1; 5 uM) | specific activity of NQO1 (NQO1; 10 uM) | specific activity of NQO1 (NQO1; 20 uM) | further results
O=S(=O)(N=C1CCCCCN1)c1ccc2sc(NS(=O)(=O)c3ccc4ccccc4c3)nc2c1 [iKeap9] | not able to effectively displace the NRF2 peptide | bind to KEAP1 | not able to effectively displace the NRF2 peptide | 1.862 |  |  |  |  |  |  |  |  | Kd (GST-KEAP1; [4]): 187 nM
O=C1OC(c2ccc([N+](=O)[O-])cc2)=N/C1=C\c1cccc2ccccc12 [iKeap4] |  |  |  |  | 1.06 | 1.1 | 1.21 | 1.18 | 1.27 | 1.47 | 1.75 | 2.2 | CD (NQO1): 15 µM
O=C(Nc1cccc(-c2nnn[nH]2)c1)[C@@H]1C[C@H]2CCCC[C@H]2N1C(=O)c1ccc2ccccc2c1 [iKeap8] | able to displace the NRF2 peptide; also recorded: active | bind to KEAP1 | able to displace the NRF2 peptide; also recorded: active | 3.340 | 1.07 | 1.04 | 1.06 | 1.11 | 1.08 | 1.11 | 1.16 | 1.21 | 
CC1=NN(c2ccccc2)C(=O)/C1=C\c1ccc(-c2cc(C(=O)O)ccc2Cl)o1 [iKeap7] | displacer of the NRF2 peptide; also recorded: active | bind to KEAP1 | displacer of the NRF2 peptide; also recorded: active | 3.663 | 1.06 | 1.08 | 1.13 | 1.17 | 1.3 | 1.44 | 1.65 | 2.08 | CD (NQO1): 20 µM
O=S(=O)(O)c1ccc(/N=N\c2ccc(/N=N\c3ccc(O)c4cccc(S(=O)(=O)O)c34)cc2)cc1 [iKeap18] |  |  |  |  | 1.09 | 1.09 | 1.19 | 1.18 | 1.29 | 1.39 | 1.58 | 1.79 | CD (NQO1; extrapolated (extp)): 40 (extp) uM
C[C@@H]1Oc2ccc(C(=O)C3CCN(C(=O)[C@H]4C[C@H]4c4cccc5ccccc45)CC3)cc2NC1=O [iKeap74] | not active |  | active | 3.034 |  |  |  |  |  |  |  |  | 
CC(=O)N/C(=C\c1ccc(Cc2nc3c([nH]2)C(=O)c2ccccc2C3=O)cc1)c1nc2c([nH]1)C(=O)c1ccccc1C2=O [iKeap48] | not active |  | active | 25.579 |  |  |  |  |  |  |  |  | 
O=C(c1cc(-c2ccc3c(c2)OCCO3)nc2ccccc12)N1CCC(Cc2ccccc2)CC1 [iKeap41] | not active |  | active | 4.446 |  |  |  |  |  |  |  |  | 
C[C@H]1CCc2c(sc3ncnc(N4CCO[C@@H](CN5C(=O)c6ccccc6C5=O)C4)c23)C1 [iKeap73] | not active |  | active | 2.510 |  |  |  |  |  |  |  |  | 
O=C1C[C@@H](c2ccc3ncccc3c2)c2c(cc(O)c3c(=O)cc(-c4ccc(O)cc4)oc23)O1 [iKeap22] | not active | bind to KEAP1 | displacer; also recorded: active | 2.547 |  |  |  |  |  |  |  |  | 
O=C(O)c1ccc(NC2=C/C(=N\S(=O)(=O)c3ccc4ccccc4c3)c3ccccc3C2=O)cc1 [iKeap2] | active | directly bind to KEAP1 | able to displace the NRF2 peptide from KEAP1; also recorded: active | 12.492 | 1.13 | 1.2 | 1.33 | 1.49 | 1.91 | 2.75 | 6.08 |  | IC50 (NRF2-KEAP1 interaction [1]; Level-2 FP, displacement of TAMRA-NRF2 peptide): 2700 nM; Kd (GST-KEAP1; SPR Level-3, average of three independent experiments, read-out: Kd average): 252 nM; Kd (GST-KEAP1; [4]): 263 nM; Kd (GST-KEAP1; SPR Level-3, independent experiment 3, compounds marked * fitted with biphasic binding model, read-out: Kd, 3): 334 nM; Kd (GST-KEAP1; steady-state SPR, read-out: Kd (binding affinity to KEAP1)): 158 nM; CD (NQO1): 2.7 µM
Cc1ccc(C)c(N2C(=O)c3ccc(-c4nc(-c5ccc6[nH]nnc6c5)no4)cc3C2=O)c1 [iKeap27] | not active |  | active | 2.643 |  |  |  |  |  |  |  |  | 
Cc1ccc(S(=O)(=O)Oc2nc3nc4ccccc4nc3nc2OS(=O)(=O)c2ccc(C)cc2)cc1 [iKeap1] |  |  |  | 2.306 | 1.19 | 1.28 | 1.41 | 1.68 | 2.1 | 2.66 | 3.53 | 4.18 | aggregation in NMR solubility assay (NMR solubility assay): does not aggregate; CD (NQO1): 2 µM
O=S(=O)(Nc1nc2ccccc2nc1N1CCC[C@@H](c2nc3ccccc3[nH]2)C1)c1ccccc1 [iKeap33] | not active |  | active | 1.585 |  |  |  |  |  |  |  |  | 
Cc1cccn2c(=O)c3c(nc12)N1CCCCC[C@H]1[C@]1(C3)C(=O)N(Cc2ccccc2Cl)C(=O)N=C1O [iKeap75] | not active |  | active | 3.612 |  |  |  |  |  |  |  |  | 
